Values of other authors in patent publication US10215758B2, “Platinum-labeled probes for mass cytometry” (priority 2015, dated 2019).

Conditions: human, in vivo; cited from earlier work

Compound: N.N.[Cl][Pt][Cl] [cisplatin, cis-diamminedichloroplatinum(II)]
- binding to serum protein: most cisplatin binds to serum protein within hours
